Measurements published in paper PMC5963640 (Journal of Ocular Pharmacology and Therapeutics, 2018).

Experiments:
[1] = target: T1, protein kinase C-theta (PKC-theta) (Homo sapiens, UniProt Q04759); experiment: Kinase-Glo luminescent protein kinase assay, PKC-theta; assay type: biochemical; settings: average of ≥3 replicate experiments; read-out: PKCT Ki
T1 construct: purchased Invitrogen/Life Technologies

[2] = target: T2, calcium/calmodulin-dependent protein kinase II Alpha (CAMK2A) (Homo sapiens, UniProt Q9UQM7); experiment: Kinase-Glo luminescent protein kinase assay, CAMK2A; assay type: biochemical; settings: average of ≥3 replicate experiments; read-out: CAM2A Ki
T2 construct: purchased Invitrogen/Life Technologies

[3] = system: primary porcine TM (PTM) cells; experiment: Disruption of actin stress fibers, high-content screening; assay type: cell-based; settings: Sus scrofa, 6 h, read-out: PTM IC50 (disruption of actin stress fibers)
[4] = system: transformed human TM (HTM) cells (TM-1); experiment: Disruption of focal adhesions, high-content screening; assay type: cell-based; settings: 6 h, read-out: HTM IC50 (disruption of focal adhesions)
[5] = system: primary HTM cells; experiment: TGF-β2-induced expression of fibrogenic markers, immunofluorescence; assay type: cell-based, human; settings: 500 nM netarsudil plus 8 ng/mL TGF-β2, 24 h
Protocol: Cells were grown on gelatin (2%)-coated coverslips until they were semi-confluent. […] The cells were then assessed for induction of the fibrogenic markers α-smooth muscle actin (α-SMA), Collagen I, and fibroblast-specific protein 1 (FSP1) using immunofluorescence staining as previously described.[29] Mouse monoclonal antibody against α-SMA was purchased from Sigma-Aldrich, rabbit anti-FSP1 antibody from EMD Millipore (Billerica, MA), and rabbit anti-Collagen I antibody from Abcam (Cambridge, MA).

[6] = In vitro corneal metabolism, dog; assay type: in vitro ADME, beagle dogs; settings: beagle, corneal tissue punches, 37°C, pH 6.5, read-out: t1/2 of corneal metabolism
Protocol: (§1) Enucleated pig eyes (n = 3) were harvested at a local abattoir, stored on ice, and used within 4 h of slaughter. For eyes harvested from beagle dogs (n = 3; Calvert Laboratories, Pittston, PA), Dutch Belted rabbits (n = 3; Robinson Services, Mockesville, NC), and cynomolgus monkeys (n = 4; Covance, Madison, WI), intact globes were stored in K-Sol corneal preservation buffer[31] under cold conditions and used within 24 h of sacrifice. Human corneas (n = 3) were acquired from The Eye Bank for Sight Restoration (New York, NY). The weights of the corneal punches were approximately the same for the dog, pig, human, and rabbit, whereas monkey corneal punches were approximately half of the weight of the others. Corneal punches were stored in phosphate-buffered saline and used within 1 h of preparation.
(§2) Samples were incubated at 37°C and reactions were subsequently terminated at appropriate time intervals by transferring a 100 μL aliquot of solution to an equal volume of cold acetonitrile followed by thorough trituration. The samples were centrifuged at 10,000 g for 10 min and the supernatants analyzed by high performance liquid chromatography (HPLC) using a Waters Alliance 2695 HPLC (Milford, MA) equipped with a Symmetry C18 4.6 × 75 mm 3.5 μm column.

[7] = In vitro corneal metabolism, monkey; assay type: in vitro ADME, cynomolgus monkeys; settings: corneal tissue punches, 37°C, pH 6.5, read-out: t1/2 of corneal metabolism
Protocol: as §1, §2

[8] = In vitro corneal metabolism, rabbit; assay type: in vitro ADME, Dutch Belted rabbits; settings: Dutch Belted, corneal tissue punches, 37°C, pH 6.5, read-out: t1/2 of corneal metabolism
Protocol: as §1, §2

[9] = In vitro corneal metabolism, pig; assay type: in vitro ADME; settings: corneal tissue punches, 37°C, pH 6.5, read-out: t1/2 of corneal metabolism
Protocol: as §1, §2

[10] = In vitro corneal metabolism, human; assay type: in vitro ADME; settings: corneal tissue punches, 37°C, pH 6.5, read-out: t1/2 of corneal metabolism
Protocol: as §1, §2

[11] = Ocular metabolism: levels in aqueous humor after topical ocular dosing; assay type: in vivo, New Zealand rabbits
Protocol: In groups 1 and 2, the test article was dosed only once, and 100 μL samples of AH were taken from each eye by paracentesis at 4 or 6 h postdose, respectively. In groups 3 and 4, the test article was dosed once daily for 3 or 4 days, respectively, and 100 μL samples of AH were taken 4 h after dosing.

[12] = Absorption and distribution of radioactivity after single topical ocular dose; assay type: in vivo, Dutch Belted rabbits; settings: male, Dutch Belted, rabbit, in vivo
Protocol: A single topical ocular dose of 0.02% ^14C-netarsudil mesylate (35 μL drop) was administered to both eyes of 3 male Dutch Belted rabbits in each of 7 groups. At 0.25, 0.5, 1, 4, 8, 24, and 48 h postdose, the following samples were harvested from each group: whole blood, derived plasma, AH, vitreous humor, cornea, conjunctiva, lens, iris/ciliary body, retina-choroid-plexus, liver, and kidneys. All samples were assayed for total radioactivity. A study of the same design was conducted for AR-12286, using a single topical ocular dose of 0.5% ^3H-AR-12286 (35 μL drop).

[13] = target: norepinephrine transporter (NET) (Homo sapiens, UniProt P23975); experiment: NET inhibitory activity (data not shown)
[14] = system: live monkeys; design: method as in PMID 25535688; settings: 6 h after topical dosing, 0.04%; cited from earlier work
[15] = system: patients; design: method as in PMID 25270273; settings: 0.02% once daily in the evening, Day 7 and 28 morning visits; cited from earlier work
[16] = system: normotensive Dutch Belted rabbits; experiment: Ocular hypotensive activity (IOP) in rabbits; settings: for maximal IOP reduction: once daily, Day 3, at 4 or 8 h after dosing
[17] = system: normotensive Formosan Rock monkeys; experiment: Ocular hypotensive activity (IOP) in monkeys; settings: for maximal IOP reduction: once daily, Day 3, at 4 or 8 h after dosing; for IOP reduction: Day 3
[18] = system: Dutch Belted rabbits; experiment: Ocular tolerability (modified Draize, hyperemia score) in rabbits; settings: 0.005%, 0.01%, 0.02% and 0.04% solutions
[19] = system: Formosan Rock monkeys; experiment: Ocular tolerability (modified Draize, hyperemia score) in monkeys; settings: 0.01%, 0.02% and 0.04% solutions, once daily for 3 days

T2 sequence (Q9UQM7 whole entry): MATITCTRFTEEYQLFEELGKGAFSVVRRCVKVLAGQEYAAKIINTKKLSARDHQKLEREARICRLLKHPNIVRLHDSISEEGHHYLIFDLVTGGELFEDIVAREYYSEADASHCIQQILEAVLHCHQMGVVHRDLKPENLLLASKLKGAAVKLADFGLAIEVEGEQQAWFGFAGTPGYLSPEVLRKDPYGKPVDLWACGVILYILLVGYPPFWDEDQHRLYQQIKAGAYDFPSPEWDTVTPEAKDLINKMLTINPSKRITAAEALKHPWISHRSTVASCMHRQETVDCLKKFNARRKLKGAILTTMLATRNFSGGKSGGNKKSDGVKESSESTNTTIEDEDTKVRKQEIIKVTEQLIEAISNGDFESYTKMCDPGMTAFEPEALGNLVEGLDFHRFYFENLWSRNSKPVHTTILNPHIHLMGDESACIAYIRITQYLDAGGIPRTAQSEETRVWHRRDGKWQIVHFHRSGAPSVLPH
T1 sequence (Q04759 whole entry): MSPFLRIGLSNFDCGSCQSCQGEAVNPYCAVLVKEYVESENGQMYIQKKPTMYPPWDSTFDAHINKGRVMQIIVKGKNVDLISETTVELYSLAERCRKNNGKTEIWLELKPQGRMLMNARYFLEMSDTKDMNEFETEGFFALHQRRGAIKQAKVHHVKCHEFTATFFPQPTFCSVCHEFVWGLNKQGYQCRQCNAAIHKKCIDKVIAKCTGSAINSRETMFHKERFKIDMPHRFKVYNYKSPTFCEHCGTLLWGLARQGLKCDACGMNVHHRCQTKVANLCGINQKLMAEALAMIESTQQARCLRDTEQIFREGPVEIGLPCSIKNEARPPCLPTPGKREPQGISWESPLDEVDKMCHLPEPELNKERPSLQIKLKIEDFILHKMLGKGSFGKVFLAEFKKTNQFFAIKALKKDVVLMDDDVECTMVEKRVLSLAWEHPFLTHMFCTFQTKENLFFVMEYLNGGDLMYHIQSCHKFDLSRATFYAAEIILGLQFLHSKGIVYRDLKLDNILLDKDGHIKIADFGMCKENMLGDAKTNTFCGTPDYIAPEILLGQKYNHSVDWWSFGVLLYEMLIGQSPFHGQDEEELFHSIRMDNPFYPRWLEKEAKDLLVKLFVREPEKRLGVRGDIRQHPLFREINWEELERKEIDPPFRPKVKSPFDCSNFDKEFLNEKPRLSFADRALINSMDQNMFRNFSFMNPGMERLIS
Sequence of norepinephrine transporter (NET) (P23975 whole entry, species assumed): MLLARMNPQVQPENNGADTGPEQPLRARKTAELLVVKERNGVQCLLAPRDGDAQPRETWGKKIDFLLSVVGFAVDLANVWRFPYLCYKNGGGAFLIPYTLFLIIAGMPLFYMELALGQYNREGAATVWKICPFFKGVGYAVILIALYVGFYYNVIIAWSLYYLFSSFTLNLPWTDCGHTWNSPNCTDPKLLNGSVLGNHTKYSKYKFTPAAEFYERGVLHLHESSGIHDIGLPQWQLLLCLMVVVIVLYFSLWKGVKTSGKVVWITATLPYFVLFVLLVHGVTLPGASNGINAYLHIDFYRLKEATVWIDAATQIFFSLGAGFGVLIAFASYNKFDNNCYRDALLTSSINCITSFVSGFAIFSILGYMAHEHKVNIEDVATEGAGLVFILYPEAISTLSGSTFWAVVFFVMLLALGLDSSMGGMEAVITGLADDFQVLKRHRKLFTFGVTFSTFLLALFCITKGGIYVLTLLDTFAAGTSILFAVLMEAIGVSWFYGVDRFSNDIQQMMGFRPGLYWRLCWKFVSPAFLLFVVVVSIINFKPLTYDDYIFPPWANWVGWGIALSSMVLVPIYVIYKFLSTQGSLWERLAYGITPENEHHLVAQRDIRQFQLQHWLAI

Cc1ccc(C(=O)OCc2ccc([C@@H](CN)C(=O)Nc3ccc4cnccc4c3)cc2)c(C)c1 [Netarsudil]
Ki [1]: 0.092 µM | Ki [2]: 5.31 µM | IC50 [3]: 0.079 µM | IC50 [4]: 0.016 µM | induction of fibrogenic markers α-SMA, FSP1 and Collagen I by TGF-β2 [5]: abolished the induction of these markers by TGF-β2 | half-life at 200 µM [6]: 1.63 h | half-life at 200 µM [7]: 1.82 h | half-life at 200 µM [8]: 2.33 h | half-life at 200 µM [9]: 2.6 h | half-life at 200 µM [10]: 2.92 h | concentration in AH ([11]; after topical netarsudil 0.02%, below the limit of detection in all but 1 of the 24 samples): < 0.1 ng/mL | concentration at 4 h ([11]; male, New Zealand, rabbit, aqueous humor, topical, 0.02 %, read-out: concentration in AH, single sample above limit of detection): 1.82 ng/mL | AH half-life of related radioactivity, longer than that for AR-12286 [12]: ~60% | Tmax in AH ([12]; topical or ocular): 8 h | terminal elimination half-life (T1/2,e) in AH ([12]; topical or ocular): 16 to 17 h | NET inhibitory activity [13]: possesses NET inhibitory activity | increase in tonographic outflow facility [14]: 53% | patients scored as having no hyperemia or trace hyperemia [15]: 65% to 76 | maximal IOP reduction ([16]; 0.005% solution): 2.5 ± 0.2 mmHg | maximal IOP reduction ([16]; 0.01% solution): 4.6 ± 0.2 mmHg | maximal IOP reduction ([16]; 0.02% solution): 5.0 ± 0.6 mmHg | maximal IOP reduction ([16]; 0.04% solution): 8.1 ± 0.7 mmHg | IOP reduction ([16]; 0.04%, 8 h after dosing on Day 3): 8.1 ± 0.7 mmHg | time of peak IOP-lowering efficacy after dosing ([16]; Day 1): 8 h | time IOP reductions were sustained after once daily dosing ([16]; rabbits): at least 24 h | maximal IOP reduction ([17]; 0.01% solution): 4.2 ± 0.2 mmHg | maximal IOP reduction ([17]; 0.02% solution): 5.8 ± 0.3 mmHg | time for which full IOP-lowering effect was maintained after dosing ([17]; 0.04%): 24 h | maximal IOP reduction ([17]; 0.04% solution): 7.5 ± 1.1 mmHg | IOP reduction ([17]; 0.04%, 4 h after dosing): 7.5 ± 0.7 mmHg | IOP reduction ([17]; 0.04%, 24 h after dosing): 7.5 ± 1.1 mmHg | time IOP reductions were sustained after once daily dosing ([17]; monkeys): at least 24 h | persistence of hyperemia after dosing [18]: 4 to 8 h | hyperemia (scored 0 to 3, none to severe) ([18]; once daily for 3 days): trace (+0.5) to mild hyperemia (+1) | adverse effect noted (hyperemia) [19]: trace to mild hyperemia was the only adverse effect noted
